Measurements published in patent publication US20190254274A1, “COMPOSITE MATERIALS DESIGNED TO POSSES BIO-ACTIVE PROPERTIES AND SYNTHESIS AND USES THEREO” (ADA Foundation, priority 2018, published 2019).

Assays:
Format in all cases: cell-based
[1] = tested on: TNF-alpha expression in primary human CD14+ cells; assay: TNF-alpha ELISA in LPS-stimulated human CD14+ monocyte-derived macrophages; details: 2 hr LPS+4 hr Tx
Experimental: All chemicals, unless otherwise indicated, were procured from Sigma-Aldrich and used without additional purification. Stock solutions of Docosahexaenoic acid (DHA) in Dimethyl Sulfoxide (DMSO), Aspirin in physiologically buffered saline (PBS, pH 7.4) were prepared prior to their use. E. Coli derived Lipopolysaccharide (LPS) was reconstituted at 1 ug/mL, sterile filtered, and stored at −80 C until needed. RAW 264.7 murine macrophage cell line was obtained from ATCC (Manassas, Va.). Cells were thawed at passage 5 or 6 and were maintained in DMEM complete growth media supplemented with 10% FBS (Hyclone, GE Healthcare)+1% Penn/strep (Gibco) until needed. Peripheral blood derived primary human CD14+monocytes (BioreclamationlVT, Albany, N.Y.) were also maintained in DMEM growth media until needed. […]
(§1) Following each treatment, sample media was tested for inflammatory tumor necrosis factor alpha (TNF-alpha) expression using a commercially available sandwich ELISA kits designed for either mouse or human cells (R&D Systems). Samples showing reduction in TNF-alpha were further analyzed using the Resolvin D1 and Resolvin D2 ELISA kits (Cayman Chemical). Mean and standard deviations were calculated for each analyte. ELISA results were normalized to the total protein readings of each well. […]

[2] = tested on: Resolvin D1 (RvD1) expression and release; assay: Resolvin D1 ELISA, LPS-challenged human macrophages
Experimental: (§2) All chemicals, unless otherwise indicated, were procured from Sigma-Aldrich and used without additional purification. Stock solutions of Docosahexaenoic acid (DHA) in Dimethyl Sulfoxide (DMSO), Aspirin in physiologically buffered saline (PBS, pH 7.4) were prepared prior to their use. E. Coli derived Lipopolysaccharide (LPS) was reconstituted at 1 ug/mL, sterile filtered, and stored at −80 C until needed. RAW 264.7 murine macrophage cell line was obtained from ATCC (Manassas, Va.). Cells were thawed at passage 5 or 6 and were maintained in DMEM complete growth media supplemented with 10% FBS (Hyclone, GE Healthcare)+1% Penn/strep (Gibco) until needed. Peripheral blood derived primary human CD14+monocytes (BioreclamationlVT, Albany, N.Y.) were also maintained in DMEM growth media until needed. Prior to experimentation, monocytes were differentiated to macrophages by using macrophage colony stimulating factor (M-CSF) at 25 ng/mL in media for up to three days or until cells had reached near confluence (˜95%). RAW 264.7 cells were seeded at roughly 5,000 cells per well in a 96-well plate and allowed to grow to near confluence. At confluence, cells were pre-treated with LPS for 2 hours. At the 2-hour mark, cells were treated with DMEM media containing DMSO (1% w/w, negative control), Aspirin (positive control, 10 nmol/L), DHA (100 umol/L) or a combination of the two. Bio-active composite material Hydroxyapatite-Docosahexaenoic acid (HA-DHA) was dispersed in DMSO and delivered at similar concentrations as DHA alone (described above). Cells were harvested at 2, 4, and 6 hours after LPS stimulation. Human CD14+ cells were seeded at roughly 3.3*10^4 cells per well in a 96-well plate and treated with MCSF until full confluence. Cells were treated with LPS for 2 hours, at which time they were exposed to the same treatments described above for RAW 264.7 cells. Cells were harvested at 4 and 6 hours. […]
as §1
(§3) To investigate further the anti-inflammatory effects the inventors observed in both human and murine macrophages challenged with pathogenic LPS and to determine if the bio-active composite material HA-DHA on its' own and in combination with Aspirin induces formation of pro-resolution mediators, the inventors measured Resolvin production secreted from challenged human macrophages.

[3] = tested on: Resolvin D2 (RvD2) expression and release; assay: Resolvin D2 ELISA, LPS-challenged human macrophages
Experimental: as §2, §1, §3

[4] = earlier time point (FIG. 19, Table 2)
[5] = 2 hours LPS + 6 hours treatment (Table 5)

Row | Structure (SMILES) | TNF-alpha expression (Mean) [1] [pg/µg] | Resolvin D1 (RvD1) expression and release (Mean) ([2]; 2-hour+6-hour Tx (Table 3)) | Resolvin D1 (RvD1) expression and release (Mean) [2, 4] | Resolvin D2 (RvD2) expression (Mean) ([3]; 2 hour LPS+4 hr Tx (Table 4)) | Resolvin D2 (RvD2) expression (Mean) [3, 5]
1 | CC(=O)Oc1ccccc1C(=O)O [Aspirin] | 9.1 | 16.96 | 18.87 | 25.02 | 73.25
2 | CC/C=C\C/C=C\C/C=C\C/C=C\C/C=C\C/C=C\CCC(=O)O [DHA, 4Z, 7Z, 10Z, 13Z, 16Z, 19Z)-docosa-4,7,10,13,16,19-hexaenoic acid] | 10.5 | 678 | 771.1 | 194.2 | 161.9
